Test results: ChEMBL document CHEMBL1201862, “PubChem BioAssay data set” (2004)
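Following 48 hours of exposure in 96-well plates, responses at five concentrations were used to interpolate endpoints linearly. Here, GI50 denotes the concentration required for 50% inhibition of growth.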 Activity calls are given as the source filed them. No stated cut-off is given here; in the data, active = GI50 up to about 1.1 µM and inactive = higher.

Key:
Assay in all cases: DTP human tumour cell line panel, 48 h
[1] = test system: HT-29
[2] = test system: SK-MEL-5
[3] = test system: HCT-15
[4] = test system: UO-31
[5] = test system: HOP-62
[6] = test system: SK-OV-3
[7] = test system: PC-3
[8] = test system: SK-MEL-2
[9] = test system: SN12C
[10] = test system: NCI-H226
[11] = test system: MOLT-4
[12] = test system: NCI-H23
[13] = test system: LOX IMVI
[14] = test system: A498
[15] = test system: SNB-75
[16] = test system: SNB-19
[17] = test system: TK-10
[18] = test system: Hs-578T
[19] = test system: NCI-H522
[20] = test system: HCC 2998

| Compound | GI50 [1] | GI50 [2] | GI50 [3] [µM] | GI50 [4] | GI50 [5] | GI50 [6] | GI50 [7] | GI50 [8] | GI50 [9] | GI50 [10] | GI50 [11] | GI50 [12] | GI50 [13] | GI50 [14] | GI50 [15] | GI50 [16] | GI50 [17] | GI50 [18] | GI50 [19] | GI50 [20] |
| --- | --- | --- | --- | --- | --- | --- | --- | --- | --- | --- | --- | --- | --- | --- | --- | --- | --- | --- | --- | --- |
| NCCCN1CCN(CC(=O)O)CCN(CCCN)CCN(CC(=O)O)CC1 | > 19.9 µM (inactive) | 4.5 µM (inactive) | 43.8 | > 34.3 µM (inactive) | > 100 µM (inactive) | > 92 µM (inactive) | > 45.1 µM (inactive) | > 33.3 µM (inactive) | > 100 µM (inactive) | > 100 µM (inactive) | 7.14 µM (inactive) | > 100 µM (inactive) | > 100 µM (inactive) | > 100 µM (inactive) | > 100 µM (inactive) | > 100 µM (inactive) | > 100 µM (inactive) | > 100 µM (inactive) | 24.7 µM (inactive) | 19.5 µM (inactive) |
| CCCCCCCCSC1=C(Cl)C(=O)C(OC)=C(OC)C1=O | 16.9 µM (inactive) | 4.74 µM (inactive) | 6.34 | 12.1 µM (inactive) | 17.2 µM (inactive) | 23.1 µM (inactive) | 14.2 µM (inactive) | 15.4 µM (inactive) | 5.09 µM (inactive) | 12.4 µM (inactive) | 3.12 µM (inactive) | 13 µM (inactive) | 4.57 µM (inactive) | 12.3 µM (inactive) | 19.1 µM (inactive) | 10.5 µM (inactive) | 14.1 µM (inactive) | 20.7 µM (inactive) | 2.47 µM (inactive) | 15.2 µM (inactive) |
| COc1ccc(N2C=Nn3c(nc4sc(C)c(C)c4c3=O)C2)cc1 | > 100 µM (inactive) | > 100 µM (inactive) | > 100 | > 100 µM (inactive) | 28.6 µM (inactive) | > 100 µM (inactive) | > 100 µM (inactive) | > 100 µM (inactive) | > 100 µM (inactive) | > 100 µM (inactive) | > 100 µM (inactive) | > 100 µM (inactive) | > 100 µM (inactive) | 29.4 µM (inactive) | > 100 µM (inactive) | > 100 µM (inactive) | > 100 µM (inactive) | > 100 µM (inactive) | > 100 µM (inactive) | > 100 µM (inactive) |
| OCCc1ccsc1-c1sc(-c2cc(CCO)c(-c3sc(-c4cc(CCO)c(-c5sccc5CCO)s4)cc3CCO)s2)cc1CCO | 1.77 µM (inactive) | 1.13 µM (inactive) | 1.03 | 1.29 µM (inactive) | 1.38 µM (inactive) | 1.64 µM (inactive) | 1.28 µM (inactive) | 1.68 µM (inactive) | 1.85 µM (inactive) | 1.65 µM (inactive) | 0.52 µM (active) | 0.853 µM (active) | 0.617 µM (active) | 2 µM (inactive) | 1.27 µM (inactive) | 1.7 µM (inactive) | 1.55 µM (inactive) | 3.13 µM (inactive) | 0.807 µM (active) | 1.47 µM (inactive) |
| CC[S+]1C2=C(CC(C)(C)CC2=O)[N-]c2ccccc21 (stereo not given) | > 100 µM (inactive) | > 100 µM (inactive) | > 100 | > 100 µM (inactive) | > 100 µM (inactive) | > 100 µM (inactive) | > 100 µM (inactive) | > 100 µM (inactive) | > 100 µM (inactive) | > 100 µM (inactive) | > 100 µM (inactive) | > 100 µM (inactive) | > 100 µM (inactive) | > 100 µM (inactive) | > 100 µM (inactive) | > 100 µM (inactive) | > 100 µM (inactive) | 78.3 µM (inactive) | > 100 µM (inactive) | > 100 µM (inactive) |
| CC(C)C1OCC(CO)CO1 (stereo not given) | > 100 µM (inactive) | > 100 µM (inactive) | > 100 | > 100 µM (inactive) | > 100 µM (inactive) | > 100 µM (inactive) | > 100 µM (inactive) | > 100 µM (inactive) | > 100 µM (inactive) | > 100 µM (inactive) | > 100 µM (inactive) | > 100 µM (inactive) | > 100 µM (inactive) | > 100 µM (inactive) | > 100 µM (inactive) | > 100 µM (inactive) | > 100 µM (inactive) | > 100 µM (inactive) | > 100 µM (inactive) | > 100 µM (inactive) |
| CC(C)=CCC[C@@H](C)C1=C(N)C(=O)C(C)=C(O)C1=O | 15.6 µM (inactive) | 24.8 µM (inactive) | 23.3 | 36 µM (inactive) | 55.1 µM (inactive) | 71.1 µM (inactive) | 54.3 µM (inactive) | 65.9 µM (inactive) | 45.8 µM (inactive) | 27.5 µM (inactive) | 19.5 µM (inactive) | 42.7 µM (inactive) | 36.6 µM (inactive) | 29.9 µM (inactive) | 40.6 µM (inactive) | 60.7 µM (inactive) | 53.1 µM (inactive) | 34.9 µM (inactive) | 25.8 µM (inactive) | > 75 µM (inactive) |
| O/N=C1/COC(C(F)(F)F)(C(F)(F)F)C1 | > 100 µM (inactive) | > 100 µM (inactive) | > 100 | > 100 µM (inactive) | > 100 µM (inactive) | > 100 µM (inactive) | > 100 µM (inactive) | > 100 µM (inactive) | > 100 µM (inactive) | > 100 µM (inactive) | > 100 µM (inactive) | > 100 µM (inactive) | > 100 µM (inactive) | > 100 µM (inactive) | > 100 µM (inactive) | > 100 µM (inactive) | > 100 µM (inactive) | > 100 µM (inactive) | > 100 µM (inactive) | > 100 µM (inactive) |
| O=[N+]([O-])c1ccc(/C(=C\c2ccccc2)Cn2ccnc2)cc1 | 14 µM (inactive) | 29.9 µM (inactive) | 30.2 | 13.6 µM (inactive) | 54.1 µM (inactive) | 38.4 µM (inactive) | 24.8 µM (inactive) | 22.9 µM (inactive) | 35 µM (inactive) | 32.4 µM (inactive) | 24 µM (inactive) | 26.5 µM (inactive) | 17.3 µM (inactive) | 20.9 µM (inactive) | 27.4 µM (inactive) | 57.9 µM (inactive) | 32.7 µM (inactive) | 29.1 µM (inactive) | 20 µM (inactive) | 68.7 µM (inactive) |
| C=C(CCCCCCCCC)CC(=O)SCCNC(=O)CCNC(=O)C(O)C(C)(C)COP(=O)(O)OP(=O)(O)OCC1OC(n2cnc3c(N)ncnc32)C(O)C1OP(=O)(O)O (stereo not given) | 68.2 µM (inactive) | 31.6 µM (inactive) | 50.1 | 99.1 µM (inactive) | 40.9 µM (inactive) | > 100 µM (inactive) | 56.4 µM (inactive) | 60.8 µM (inactive) | > 84.3 µM (inactive) | > 100 µM (inactive) | > 57.1 µM (inactive) | > 100 µM (inactive) | 38.3 µM (inactive) | > 100 µM (inactive) | 30 µM (inactive) | > 71.6 µM (inactive) | > 100 µM (inactive) | > 64.4 µM (inactive) | 11.8 µM (inactive) | 52.8 µM (inactive) |
| COc1cc2c(c(O)c1OC)-c1c(cc(OC)c(OC)c1OC)CC(C)C(C)C2 (stereo not given) [GOMISIN K3] | 40.6 µM (inactive) | 35.6 µM (inactive) | 33 | 29.4 µM (inactive) | > 100 µM (inactive) | 82.4 µM (inactive) | 28.6 µM (inactive) | 45.2 µM (inactive) | 47.8 µM (inactive) | 42.8 µM (inactive) | 16.6 µM (inactive) | 49 µM (inactive) | 49.9 µM (inactive) | 35.1 µM (inactive) | 34.3 µM (inactive) | 60.8 µM (inactive) | 26.5 µM (inactive) | 69.8 µM (inactive) | 44.6 µM (inactive) | 42.3 µM (inactive) |
